Patent publication US12570647B2 (Saint Louis University, priority 2021, dated 2026)
Converted amounts (≈) assume the structure as drawn.

Test system: S. aureus ATCC25923
Assay: S. aureus MIC80 determination, broth microdilution (CLSI) in CAMHB
Assay type: cell-based
Conditions: Staphylococcus aureus, ATCC25923; Table 1; S. aureus ATCC 25923; growth inhibition ≥80% vs vehicle, 16-24 h; read-out: ATCC 25923 MIC80
Description: S. Aureus MIC80 determinations in S. aureus ATCC25923 or in multidrug-resistant strains AR215, AR217 and AR255. MIC80's were determined by the broth microdilution method recommended by the Clinical and Laboratory Standards Institute (CLSI) in Cation-adjusted Mueller-Hinton broth (CAMHB). (Cao et al., 2018). In the preliminary screening, three compound concentrations were used: 5.8, 20.4, and 71.4 μM; for quantitative MIC80 measurements, a 1.5-fold dilution series of the compounds was prepared in CAMHB. Overnight bacterial culture was added to the diluted compounds in a 96-well plate after adjusting the bacterial concentration to achieve a 5×10^5 CFU/mL final concentration. After 16-24 h incubation at 35±2° C., the plates were read at 600 nm in a microplate reader. The MIC80 was defined as the concentration of an antibacterial agent that inhibited bacteria growth ≥80% compared to vehicle-treated control cultures. All values were determined at least twice independently, and the average number is reported.

SMILES	MIC80 [µM]
Cc1cc(Cl)cc2sc(N3CCCC(Cn4ccnc4)C3)nc12 (stereo not shown) [Example 35, 6-chloro-2-{3-[(1H-imidazol-1-yl)methyl]piperidin-1-yl}-4-methyl-1,3-benzothiazole]	66.7 (≈ 23.1 µg/mL)
O=C(c1ccco1)N(CCCn1ccnc1)c1nc2ccc(Cl)nc2s1 [Example 52, N-{5-chloro-[1,3]thiazolo[5,4-b]pyridin-2-yl}-N-[3-(1H-imidazol-1-yl)propyl]furan-2-carboxamide]	> 100
Cc1cc(Cl)cc2sc(N(CCCn3ccnc3)C(=O)c3ccco3)nc12 [Example 2, N-(3-(1H-imidazol-1-yl)propyl)-N-(6-chloro-4-methylbenzo[d]thiazol-2-yl)furan-2-carboxamide]	1.7 (≈ 0.682 µg/mL)
Cc1cc(Cl)cc2sc(N(CC3CCN(C)CC3)C(=O)C3CCC3)nc12 [Example 38, N-(6-chloro-4-methyl-1,3-benzothiazol-2-yl)-N-[(1-methylpiperidin-4-yl)methyl]cyclobutanecarboxamide]	> 100
Cc1cc(Cl)cc2sc(N3CCC(NC(=O)OC(C)(C)C)CC3)nc12 [Example 58]	> 100
Cc1cc(Cl)cc2sc(N3CCNCC3)nc12 [Example 30, 6-chloro-4-methyl-2-(piperazin-1-yl)-1,3-benzothiazole]	100 (≈ 26.8 µg/mL)
Cc1cc(Cl)cc2sc(N(CC3CCNC3)C(=O)C3CCC3)nc12 (stereo not shown) [Example 40, N-(6-chloro-4-methyl-1,3-benzothiazol-2-yl)-N-[(pyrrolidin-3-yl)methyl]cyclobutanecarboxamide]	29.6 (≈ 10.8 µg/mL)
Cc1cc(Cl)cc2sc(NC(=O)c3ccco3)nc12 [Example 62]	> 100
Cc1nc(Cl)cc2sc(N(CCCn3ccnc3)C(=O)c3ccco3)nc12 [Example 54, N-{6-chloro-4-methyl-[1,3]thiazolo[4,5-c]pyridin-2-yl}-N-[3-(1H-imidazol-1-yl)propyl]furan-2-carboxamide]	> 100
Cc1cc(Cl)cc2sc(N(CCCn3ccnc3)S(=O)(=O)c3cccs3)nc12 [Example 22, N-(3-(1H-imidazol-1-yl)propyl)-N-(6-chloro-4-methylbenzo[d]thiazol-2-yl)thiophene-2-sulfonamide]	3.9 (≈ 1.77 µg/mL)
Cc1cc(Cl)cc2sc(N(CCCn3ccnc3)C(=O)c3cc4ccccc4o3)nc12 [Example 13, N-(3-(1H-imidazol-1-yl)propyl)-N-(6-chloro-4-methylbenzo[d]thiazol-2-yl)benzofuran-2-carboxamide]	8.8 (≈ 3.97 µg/mL)
Cc1cc(Cl)cc2sc(N3CCC(N)CC3)nc12 [Example 33, 1-(6-chloro-4-methyl-1,3-benzothiazol-2-yl)piperidin-4-amine]	66.7 (≈ 18.8 µg/mL)
Cc1cc(Cl)cc2sc(N(C[C@H]3CC[C@H](N)CC3)C(=O)C3CC3)nc12 [Example 45, N-(6-chloro-4-methyl-1,3-benzothiazol-2-yl)-N-{[(1r,4r)-4-aminocyclohexyl]methyl}cyclopropanecarboxamide]	19.8 (≈ 7.48 µg/mL)
Cc1cc(Cl)cc2sc(N3CCC(O)CC3)nc12 [Example 32, 1-(6-chloro-4-methylbenzo[d]thiazol-2-yl)piperidin-4-ol]	> 100
Cc1cc(Cl)cc2sc(N(CC3CCNCC3)C(=O)C3CCC3)nc12 [Example 37, N-(6-chloro-4-methylbenzo[d]thiazol-2-yl)-N-(piperidin-4-ylmethyl)cyclobutanecarboxamide]	19.8 (≈ 7.48 µg/mL)
Cc1cc(Cl)cc2sc(N(CCCn3ccnc3)Cc3ccccc3)nc12 [Example 26, N-(3-(1H-imidazol-1-yl)propyl)-N-benzyl-6-chloro-4-methylbenzo[d]thiazol-2-amine]	3.9 (≈ 1.55 µg/mL)
Cc1cc(Cl)cc2sc(N(CC3CCCNC3)C(=O)C3CC3)nc12 (stereo not shown) [Example 42, N-(6-chloro-4-methyl-1,3-benzothiazol-2-yl)-N-[(piperidin-3-yl)methyl]cyclopropanecarboxamide]	66.7 (≈ 24.3 µg/mL)
CSCc1ccc(C(=O)N(CCCn2ccnc2)c2nc3c(C)cc(Cl)cc3s2)o1 [Example 20, N-(3-(1H-imidazol-1-yl)propyl)-N-(6-chloro-4-methylbenzo[d]thiazol-2-yl)-5-((methylthio)methyl)furan-2-carboxamide]	2.9 (≈ 1.34 µg/mL)
Cc1cc(Cl)cc2sc(N(CCCn3ccnc3)CCCn3ccnc3)nc12 [Example 28, N,N-bis(3-(1H-imidazol-1-yl)propyl)-6-chloro-4-methylbenzo[d]thiazol-2-amine]	5.9 (≈ 2.45 µg/mL)
Cc1cc(Cl)cc2sc(NC(=O)C3CC3)nc12 [Example 61]	> 100
Cc1cc(Cl)cc2sc(N(CCCn3ccnc3)C(=O)c3ccccn3)nc12 [Example 5, N-(3-(1H-imidazol-1-yl)propyl)-N-(6-chloro-4-methylbenzo[d]thiazol-2-yl)picolinamide]	8.8 (≈ 3.62 µg/mL)

Further lines, results first:

MIC80 [µM]	SMILES
> 100	NCc1ccc2nc(N(CCCn3ccnc3)C(=O)c3ccco3)sc2c1 [Example 49, N-[6-(aminomethyl)-1,3-benzothiazol-2-yl]-N-[3-(1H-imidazol-1-yl)propyl]furan-2-carboxamide]
5.9 (≈ 2.29 µg/mL)	Cc1cc(Cl)cc2sc(N(CCCn3ccnc3)C(=O)C3(C)CC3)nc12 [Example 18, N-(3-(1H-imidazol-1-yl)propyl)-N-(6-chloro-4-methylbenzo[d]thiazol-2-yl)-1-methylcyclopropanecarboxamide]
> 100	NCc1cccc2sc(N(CCCn3ccnc3)C(=O)c3ccco3)nc12 [Example 46, N-[4-(aminomethyl)-1,3-benzothiazol-2-yl]-N-[3-(1H-imidazol-1-yl)propyl]furan-2-carboxamide]
100 (≈ 37.6 µg/mL)	Cc1nc(Cl)cc2sc(N(CCCn3ccnc3)C(=O)C3CC3)nc12 [Example 55, N-{6-chloro-4-methyl-[1,3]thiazolo[4,5-c]pyridin-2-yl}-N-[3-(1H-imidazol-1-yl)propyl]cyclopropanecarboxamide]
> 100	Cc1cc(Cl)cc2sc(N(CCCn3ccnc3)C(=O)CN)nc12 [Example 36, 2-amino-N-(6-chloro-4-methyl-1,3-benzothiazol-2-yl)-N-[3-(1H-imidazol-1-yl)propyl]acetamide]
3.9 (≈ 1.6 µg/mL)	Cc1cc(Cl)cc2sc(N(CCCn3ccnc3)C(=O)c3ccccc3)nc12 [Example 3, N-(3-(1H-imidazol-1-yl)propyl)-N-(6-chloro-4-methylbenzo[d]thiazol-2-yl)benzamide]
1.3 (≈ 0.52 µg/mL)	Cc1cc(Cl)cc2sc(N(CCCn3ccnc3)C(=O)c3ccc[nH]3)nc12 [Example 19, N-(3-(1H-imidazol-1-yl)propyl)-N-(6-chloro-4-methylbenzo[d]thiazol-2-yl)-1H-pyrrole-2-carboxamide]
> 100	NCc1cccc2sc(N(CCCn3ccnc3)C(=O)C3CC3)nc12 [Example 48, N-[4-(aminomethyl)-1,3-benzothiazol-2-yl]-N-[3-(1H-imidazol-1-yl)propyl]cyclopropanecarboxamide]
2.7 (≈ 1.02 µg/mL)	Cc1cc(Cl)cc2sc(N(CCCn3ccnc3)C(=O)C(C)C)nc12 [Example 11, N-(3-(1H-imidazol-1-yl)propyl)-N-(6-chloro-4-methylbenzo[d]thiazol-2-yl)isobutyramide]
> 100	NCc1ccc2nc(N(CCCn3ccnc3)C(=O)C3CCC3)sc2c1 [Example 50, N-[6-(aminomethyl)-1,3-benzothiazol-2-yl]-N-[3-(1H-imidazol-1-yl)propyl]cyclobutanecarboxamide]
